Holding throughout (assay): inhibition of tumour cell growth, NCI panel, 48 h
Assay [1] has as its system NCI-H522 lung.
The test system of assay [2] is HS 578T breast.
The test system of assay [3] is MDA-MB-231 breast.
Assay [4] has as its system MCF7 breast.
In assay [5] the test system is EKVX NSCLC.
For assay [6], the system named is OVCAR-4 ovarian.
Assay [7] concerns ACHN renal.
Assay [8] concerns UACC-62 melanoma.
In assay [9] the test system is BT-549 breast.
Assay [10] concerns LOX IMVI melanoma.

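Protocol summary: plate cells (96-well), add compound at 5 concentrations, incubate 48 h, interpolate endpoints linearly. Abbreviation: GI50, concentration required for 50% inhibition of growth. TGI is the concentration that stops growth completely.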

Take `N#CCCN(CCC#N)c1ccc(C(N=Nc2ccccc2)=Nc2ccc(F)cc2)cc1`: the TGI in assay [1] is 69.8 µM; in assay [2], above 100 µM; in assay [3], above 100 µM; in assay [4], above 100 µM; in [5], above 100 µM; in [6] it was above 100 µM. For the same compound, the TGI in assay [7], in assay [8] and in assay [9] was above 100 µM throughout.

Consider `COc1ccc(C(=O)/C=C/SC(=NC#N)SC)cc1`, for which the TGI in assay [1] was 37.1 µM; in assay [2] it was 68.3 µM; in assay [3], 33.2 µM; in assay [4] it was 38.2 µM; in [5] it was above 100 µM; in assay [6], above 100 µM. Moreover, the results for the TGI in [7] and in [8] were 46.7 µM and 43.8 µM, respectively.

With `CC(C)=C/C(CC(O)(C(F)(F)F)C(F)(F)F)=N\O`, the TGI in assay [2], in assay [3], in assay [4], in assay [5], in [10] and in [6] was above 100 µM in each case. Further, the TGI in assay [7] and in assay [8] was above 100 µM throughout.

As to `Nc1c(N2CCOCC2)c(=O)nc2[nH]/c(=C\c3ccccc3O)c(=O)n12`, the TGI in assay [1], in [2], in [3], in assay [4], in assay [5] and in [10] was above 100 µM each time. Moreover, the TGI in [6] and in assay [7] was above 100 µM each time.

On to `CCN(CC)C(=S)N/N=C(/c1ccccc1)c1ccccn1`, for which the TGI in [1] was above 100 µM; in assay [2] it was above 100 µM; in assay [4], above 54 µM; in [5], above 56.7 µM; in [10], above 35.8 µM; in assay [6], 23.8 µM. For the same compound, the TGI in [7] was 5.39 µM; in [9], above 100 µM.

Take `O=C1c2cc3c(cc2-c2c1c1ccc(Cl)cc1c(=O)n2CCCn1ccnc1)OCO3`: the GI50 is 18.2 nM in assay [1]; 1540 nM in assay [2]; 959 nM in assay [3]; 117 nM in assay [5]; below 10 nM in [10]; 52.5 nM in assay [6]. For the same compound, the GI50 is below 10 nM in assay [7], below 10 nM in assay [8] and 49.1 nM in [9]. Besides, the TGI in assay [1] was 30.7 µM; in assay [2], above 100 µM; in assay [3] it was above 100 µM; in assay [5], above 100 µM; in assay [10], 0.0297 µM; in assay [6], above 100 µM. Further, the TGI in assay [7] was 1.09 µM; in assay [8], 0.0296 µM; in assay [9], above 100 µM.

`C=C1[C@@H]2CCC3[C@]4(C)C(CC[C@@]5(C)C(=O)O[C@H](O)[C@@H]45)[C@H](O)[C@]3(C2)[C@H]1OC1OC(CO)C(O)C(O)C1O` (stereo partly drawn): the TGI in assay [2], in [3], in assay [4], in [5], in assay [10] and in assay [6] was above 50 µM each time. In addition, the TGI in assay [7], in assay [8] and in [9] was above 50 µM in each case.

Consider `Cc1ccc(C)c(COCCOCn2cc(N3CCOCC3)c(=O)[nH]c2=O)c1`, for which the TGI in assay [1], in assay [2], in assay [3], in assay [4], in [5] and in [10] was above 100 µM in each case. Also, the TGI in [7], in assay [8] and in assay [9] was above 100 µM in each case.

Regarding `CCOC(=O)c1c(SCc2cc(=O)[nH]c(=O)[nH]2)n(-c2ccccc2)c(=S)n(-c2ccccc2)c1=O`, the TGI in assay [3], in assay [4], in [5], in [7], in assay [8] and in [9] was above 100 µM each time.

Take `CSc1ccc(/C=C2\N=C(c3ccccc3)N(c3nc4cc(Cl)c(F)cc4s3)C2=O)cc1`: the TGI in assay [2] was 97.3 µM; in assay [3], above 100 µM; in assay [4] it was above 100 µM; in assay [5], above 100 µM; in assay [10] it was 55.6 µM; in [6], 82.7 µM. For the same compound, the TGI in assay [7], in [8] and in assay [9] was above 100 µM in each case.

As for `CCOC(=O)c1csc(NC(=O)CCN2CCN(C)CC2)n1`, the TGI in assay [2], in assay [3], in assay [4], in assay [10], in assay [6] and in assay [7] was above 100 µM throughout. This compound also displayed a TGI in assay [8] above 100 µM.

For `c1ccc2c(c1)cc1ccc3cccc4ccc2c1c34`, the TGI in [1], in [2], in assay [3], in assay [5], in assay [10] and in assay [6] was above 100 µM throughout. The TGI in assay [7], in assay [8] and in [9] was above 100 µM each time. Further, the GI50 in [6] is above 100000 nM.

Take `CN1C2=Nc3n(c4ccccc4[n+]3C)CN2c2ccccc21`: the TGI in [1] is 65.4 µM; in [2], 90.8 µM; in assay [3], above 100 µM; in assay [4] it was 33.6 µM; in [5], above 100 µM; in [7] it was above 100 µM. In addition, the TGI was 42.6 µM in [8] and above 100 µM in assay [9].

As for `CCCn1cc2c3c(cccc31)C1C=C(C)CN(C)C1C2` (stereo not drawn), the TGI is 57.1 µM in assay [1]; 37.8 µM in [4]; 48 µM in [5]; 39.8 µM in assay [10]; 29.8 µM in [6]; 55.7 µM in assay [8].

As to `O=[N+]([O-])c1ccc(-c2csc(=[N+]3CCCCC3)s2)cc1`, the TGI in assay [1] was 18.3 µM; in assay [5] it was above 100 µM; in [10], above 100 µM; in [6], 81.4 µM; in assay [7], above 100 µM; in assay [8], above 100 µM.

In the case of `C=CN(C=C)C(=O)Cn1cc(-c2ccccc2)nn1`, the TGI in [1], in assay [3], in [4], in assay [5], in assay [10] and in [6] was above 100 µM throughout. In addition, the TGI in [7] and in assay [9] was above 100 µM each time.

Turning to `O=c1c2ccc(Cl)cc2oc2c(CNc3ccc(S(=O)(=O)Nc4ncccn4)cc3)cccc12`, the TGI in [1], in assay [3], in [4], in [5], in assay [10] and in [6] was above 100 µM throughout. In addition, the TGI in assay [7], in assay [8] and in [9] was above 100 µM in each case.

Turning to `CCOC(=O)/C=C/CCC(C)(C)COC(C)=O`, the TGI in [1], in [2], in assay [3], in assay [4], in assay [5] and in [10] was above 10 µM throughout. Moreover, the TGI in [6], in [7] and in assay [8] was above 10 µM in each case.

As to `NCCCCNCCCN1CCOC1=O`, the TGI in assay [1], in assay [2], in assay [3], in [4], in assay [5] and in [10] was above 100 µM in each case. The TGI in assay [7], in assay [8] and in assay [9] was above 100 µM each time.

As for `CC(C)(C)c1ccnc(N=C2N=C(Nc3cc(C(C)(C)C)ccn3)c3ccccc32)c1`, the TGI was 44.8 µM in assay [1]; above 100 µM in assay [5]; above 100 µM in assay [10]; above 100 µM in [6]; above 100 µM in assay [7]; above 100 µM in assay [8].

Turning to `C=C1C[C@@H]2O[C@H]3[C@H]4[C@@H](C[C@@H](C)[C@@H](OC(C)=O)[C@H]42)[C@@H](C)CO[C@@]3(C)[C@H](OC(=O)CCCCCCC)CC1=O`, the TGI turned out to be 42.6 µM in assay [1]; 39.7 µM in assay [2]; 36.7 µM in [3]; 35.9 µM in assay [4]; 32.9 µM in assay [5]; 30.1 µM in assay [10]. The TGI in assay [7] was determined as 29.5 µM; in assay [8] it was 32.1 µM; in [9], 36.9 µM.

With `CN(C)CCCNC(=O)N/N=C/c1ccccc1`, the TGI in [1], in assay [10], in assay [7] and in [8] was above 100 µM in each case.

As to `N#C/C(C(=O)NCc1ccccc1)=C(/N)N1CCCC1`, the TGI in assay [1], in assay [2], in [3], in assay [5], in [10] and in [6] was above 100 µM each time. In addition, the TGI in assay [7] and in [8] was above 100 µM throughout.

For the compound `O=C(NC(C(F)(F)F)(C(F)(F)F)P(=O)(Cc1ccccc1)Cc1ccccc1)C(C(F)(F)F)C(F)(F)F`, the TGI was 60.4 µM in [1]; above 100 µM in assay [2]; 38.8 µM in assay [3]; 31.8 µM in assay [4]; 58.9 µM in assay [5]; 35.2 µM in [10]. The TGI is 42.7 µM in assay [7] and 62.4 µM in [8].

For the compound `O=C(C(=C(I)I)c1ccccc1)c1ccccc1`, the TGI in assay [2] was 43.2 µM; in assay [4] it was above 100 µM; in assay [5], above 100 µM; in assay [6], above 100 µM; in [7], above 100 µM; in assay [8], 53.4 µM. The compound further yielded a TGI in assay [9] above 100 µM.

For `O=c1c2c3c(sc2nc2n1N=C(c1ccc(Br)cc1)CS2)CCCC3`, the TGI in assay [1], in assay [3], in assay [4], in [5], in assay [10] and in assay [6] was above 100 µM each time. The TGI in assay [7], in assay [8] and in assay [9] was above 100 µM throughout.

On to `CN(C)/N=N/c1nc2c(c(=O)n(C)c(=O)n2C)n1CC1CO1` (stereo not drawn), for which the TGI in assay [1] is 29.7 µM; in assay [3], 68.1 µM; in assay [4], 26.1 µM; in [5] it was 57.9 µM; in [10], 23.7 µM; in assay [6], 29.4 µM. Further, the TGI in assay [7] turned out to be 41.9 µM; in [8], 24.8 µM; in assay [9] it was 52.7 µM.

For `CC(=O)/C(=N\Nc1ccc(Cl)cc1)C(C)=Nc1ccc(C)cc1`, the TGI is 66.7 µM in assay [1]; above 100 µM in assay [2]; above 100 µM in [3]; above 100 µM in assay [5]; above 100 µM in [10]; above 100 µM in assay [6]. For the same compound, the TGI in [7] was 61.3 µM; in assay [8] it was above 100 µM; in [9], above 100 µM.

`Cn1c(=O)cc(NNc2ccc(Cl)c(Cl)c2)[nH]c1=O`: the TGI is 56 µM in assay [2]; 23.9 µM in [3]; 21.4 µM in [4]; 24.2 µM in assay [5]; 28.1 µM in assay [10]; 28.3 µM in assay [6]. Also, the TGI in assay [7] was found to be 19.9 µM; in assay [8] it was 16.8 µM; in assay [9], 29.9 µM.

On to `Oc1ccccc1/C=N/N1C(=S)N(C23CC4CC(CC(C4)C2)C3)C(=Nc2ccccc2)C1=Nc1ccccc1`, for which the TGI in assay [1], in [2], in assay [3], in assay [5], in assay [7] and in assay [8] was above 100 µM throughout. In assay [9], this compound showed a TGI above 100 µM.

Consider `COc1cc2c(c(OC)c1)[C@H](C)N(Cc1ccccc1)C(C)C2` (stereo partly drawn), for which the TGI in [1], in assay [2], in assay [3], in [4], in [5] and in assay [10] was above 100 µM each time. The TGI in assay [7], in [8] and in assay [9] was above 100 µM in each case.

Source of the values: PubChem BioAssay (NCI).
